Structures can show the parent of a compound that is named as a salt. Where two headings read alike, the source gives them in different places.
Key:
ALK enzyme = molecular target: T1, ALK enzyme (Homo sapiens, UniProt Q9UM73); assay: ALK enzymatic activity assay 1; format: biochemical
T1 construct: purchased Invitrogen PV4185
Procedure: ALK Enzymatic Activity Assay 1
Compounds were added at a final concentration of 1% DMSO in half-log dilutions, starting at 20 μM final concentration. The reactions were initiated by the addition of 10 μL of peptide/ATP mix to 10 μL enzyme and 2 μL of compound in 384-well plate. […] On the 12-sipper chip, substrate and phosphorylated product were separated with an upstream voltage of −2650 V, a downstream voltage of −500 V, and a screen pressure of −1.5 psi. The relative peak heights of substrate and product were measured and ratios were calculated using HTS Well Analyzer Software version 5.2.43 from the manufacturer.

cMet enzyme = molecular target: T2, cMet enzyme (Homo sapiens, UniProt P08581); assay: cMet enzymatic activity assay; format: biochemical; conditions: purified cMet enzyme 7.5 nM, ATP 17 μM (Km)
T2 construct: RTC Lot#032006
T2 sequence (P08581 25-1390): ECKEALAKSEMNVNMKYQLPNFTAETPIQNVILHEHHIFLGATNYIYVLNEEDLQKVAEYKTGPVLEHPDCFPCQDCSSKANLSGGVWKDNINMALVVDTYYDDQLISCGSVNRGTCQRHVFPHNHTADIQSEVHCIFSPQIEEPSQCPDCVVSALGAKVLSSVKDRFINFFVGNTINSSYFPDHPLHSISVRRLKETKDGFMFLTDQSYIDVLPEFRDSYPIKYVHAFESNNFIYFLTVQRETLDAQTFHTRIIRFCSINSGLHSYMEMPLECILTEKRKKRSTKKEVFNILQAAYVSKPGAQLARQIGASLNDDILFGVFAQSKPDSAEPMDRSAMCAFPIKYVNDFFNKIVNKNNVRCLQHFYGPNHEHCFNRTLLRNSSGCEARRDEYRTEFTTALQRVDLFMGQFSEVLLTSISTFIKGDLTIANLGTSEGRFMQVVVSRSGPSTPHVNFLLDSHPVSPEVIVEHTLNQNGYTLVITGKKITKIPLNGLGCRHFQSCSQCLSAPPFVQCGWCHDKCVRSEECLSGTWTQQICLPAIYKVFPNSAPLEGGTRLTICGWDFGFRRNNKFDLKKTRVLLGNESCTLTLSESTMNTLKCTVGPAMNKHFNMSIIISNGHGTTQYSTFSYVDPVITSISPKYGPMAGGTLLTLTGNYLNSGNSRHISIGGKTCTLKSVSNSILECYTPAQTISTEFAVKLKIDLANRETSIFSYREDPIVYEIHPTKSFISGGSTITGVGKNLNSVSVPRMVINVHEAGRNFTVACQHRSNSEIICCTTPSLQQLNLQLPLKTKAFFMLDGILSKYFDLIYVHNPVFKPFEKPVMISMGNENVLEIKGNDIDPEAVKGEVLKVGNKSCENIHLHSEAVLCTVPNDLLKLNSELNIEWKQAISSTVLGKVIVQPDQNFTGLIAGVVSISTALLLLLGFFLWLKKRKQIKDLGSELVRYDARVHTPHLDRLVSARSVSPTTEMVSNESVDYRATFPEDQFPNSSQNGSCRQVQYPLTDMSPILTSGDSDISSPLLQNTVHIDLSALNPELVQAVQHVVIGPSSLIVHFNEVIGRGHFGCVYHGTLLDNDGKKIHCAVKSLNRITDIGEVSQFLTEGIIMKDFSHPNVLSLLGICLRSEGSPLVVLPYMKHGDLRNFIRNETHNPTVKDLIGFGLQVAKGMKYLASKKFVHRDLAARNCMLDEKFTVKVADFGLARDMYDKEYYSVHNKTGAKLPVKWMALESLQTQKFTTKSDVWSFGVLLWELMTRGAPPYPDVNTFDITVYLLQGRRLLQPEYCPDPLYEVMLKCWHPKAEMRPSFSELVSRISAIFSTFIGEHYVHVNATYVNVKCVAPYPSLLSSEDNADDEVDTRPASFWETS
Procedure: cMet Enzymatic Activity Assay
Compounds were added at a final concentration of 2% DMSO in half-log dilutions, starting at 20 μM final concentration. The reactions were initiated by addition of 10 μL of peptide/ATP mix to 10 μL enzyme and 5 μL of compound in 384-well plate. […] Substrate and phosphorylated product were separated with an upstream voltage of −2650 V, a downstream voltage of −500V, and a screen pressure of −1.5 psi. The relative peak heights of substrate and product were measured and ratios were calculated using HTS Well Analyzer Software version 5.2.43 from the manufacturer.

[1] = molecular target: EML4-ALK wt v1 in NIH-3T3 cells (Homo sapiens, UniProt Q9UM73)
Sequence of EML4-ALK wt v1 in NIH-3T3 cells (Q9UM73 with tags, fused parts or gaps): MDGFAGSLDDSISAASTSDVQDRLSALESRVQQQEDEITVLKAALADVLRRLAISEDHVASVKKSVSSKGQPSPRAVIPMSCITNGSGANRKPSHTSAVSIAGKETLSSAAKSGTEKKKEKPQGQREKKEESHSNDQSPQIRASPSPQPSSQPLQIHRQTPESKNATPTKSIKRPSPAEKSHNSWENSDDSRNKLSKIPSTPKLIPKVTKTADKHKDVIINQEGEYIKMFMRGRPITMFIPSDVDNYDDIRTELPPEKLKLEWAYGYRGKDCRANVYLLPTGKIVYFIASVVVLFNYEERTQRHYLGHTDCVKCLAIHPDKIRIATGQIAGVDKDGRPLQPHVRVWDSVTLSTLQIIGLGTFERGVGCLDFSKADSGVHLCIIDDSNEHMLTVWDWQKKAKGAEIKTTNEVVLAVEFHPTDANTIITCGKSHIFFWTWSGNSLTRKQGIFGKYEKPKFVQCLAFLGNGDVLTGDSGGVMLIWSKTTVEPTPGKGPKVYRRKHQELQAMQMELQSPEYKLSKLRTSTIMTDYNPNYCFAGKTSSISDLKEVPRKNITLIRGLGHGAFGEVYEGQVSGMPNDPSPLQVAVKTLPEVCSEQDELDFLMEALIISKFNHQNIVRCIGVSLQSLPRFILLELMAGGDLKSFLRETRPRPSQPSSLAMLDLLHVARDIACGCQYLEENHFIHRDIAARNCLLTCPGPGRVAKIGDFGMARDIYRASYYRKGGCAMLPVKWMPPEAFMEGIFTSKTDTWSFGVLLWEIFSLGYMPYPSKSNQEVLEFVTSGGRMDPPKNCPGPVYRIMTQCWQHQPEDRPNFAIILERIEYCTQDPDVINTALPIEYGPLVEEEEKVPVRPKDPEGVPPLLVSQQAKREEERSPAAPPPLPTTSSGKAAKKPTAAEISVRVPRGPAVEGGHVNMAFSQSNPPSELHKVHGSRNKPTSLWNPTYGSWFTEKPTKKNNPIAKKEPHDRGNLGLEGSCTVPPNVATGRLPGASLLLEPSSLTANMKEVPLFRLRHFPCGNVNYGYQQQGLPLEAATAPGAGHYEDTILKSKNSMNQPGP

[2] = molecular target: T3, human recombinant wild-type ALK kinase domain (amino acids 1093-1411) (Homo sapiens, UniProt Q9UM73); assay: ALK enzyme assay 2 (microfluidic mobility shift assay); format: biochemical;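 further: kinase reaction run 1 h at room temperature, conversion quantified by electrophoretic separation of fluorescent peptide substrate from phosphorylated product, about 15-20% turnover without inhibitor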
T3 construct: ALK kinase domain (amino acids 1093-1411); made in house
T3 sequence (Q9UM73 1093-1411): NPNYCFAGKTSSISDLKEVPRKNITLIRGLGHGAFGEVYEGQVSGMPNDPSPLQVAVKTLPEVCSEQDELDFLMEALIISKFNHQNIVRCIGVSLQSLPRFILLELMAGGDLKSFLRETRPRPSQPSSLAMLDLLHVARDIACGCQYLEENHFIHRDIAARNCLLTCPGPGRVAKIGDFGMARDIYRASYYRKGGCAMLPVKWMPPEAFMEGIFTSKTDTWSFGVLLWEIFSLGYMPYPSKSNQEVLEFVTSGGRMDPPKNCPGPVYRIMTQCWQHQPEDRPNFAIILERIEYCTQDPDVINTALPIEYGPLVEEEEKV
Procedure: The reactions were incubated for 1 h at room temperature, stopped by the addition of 0.1 M EDTA, pH 8, and the extent of reactions (˜15-20% conversion with no inhibitor) was determined after electrophoretic separation of the fluorescently labeled peptide substrate and phosphorylated product on an LabChip EZ Reader II (Caliper Life Sciences, Hopkinton, Mass.).

T1 sequence (Q9UM73 19-1620): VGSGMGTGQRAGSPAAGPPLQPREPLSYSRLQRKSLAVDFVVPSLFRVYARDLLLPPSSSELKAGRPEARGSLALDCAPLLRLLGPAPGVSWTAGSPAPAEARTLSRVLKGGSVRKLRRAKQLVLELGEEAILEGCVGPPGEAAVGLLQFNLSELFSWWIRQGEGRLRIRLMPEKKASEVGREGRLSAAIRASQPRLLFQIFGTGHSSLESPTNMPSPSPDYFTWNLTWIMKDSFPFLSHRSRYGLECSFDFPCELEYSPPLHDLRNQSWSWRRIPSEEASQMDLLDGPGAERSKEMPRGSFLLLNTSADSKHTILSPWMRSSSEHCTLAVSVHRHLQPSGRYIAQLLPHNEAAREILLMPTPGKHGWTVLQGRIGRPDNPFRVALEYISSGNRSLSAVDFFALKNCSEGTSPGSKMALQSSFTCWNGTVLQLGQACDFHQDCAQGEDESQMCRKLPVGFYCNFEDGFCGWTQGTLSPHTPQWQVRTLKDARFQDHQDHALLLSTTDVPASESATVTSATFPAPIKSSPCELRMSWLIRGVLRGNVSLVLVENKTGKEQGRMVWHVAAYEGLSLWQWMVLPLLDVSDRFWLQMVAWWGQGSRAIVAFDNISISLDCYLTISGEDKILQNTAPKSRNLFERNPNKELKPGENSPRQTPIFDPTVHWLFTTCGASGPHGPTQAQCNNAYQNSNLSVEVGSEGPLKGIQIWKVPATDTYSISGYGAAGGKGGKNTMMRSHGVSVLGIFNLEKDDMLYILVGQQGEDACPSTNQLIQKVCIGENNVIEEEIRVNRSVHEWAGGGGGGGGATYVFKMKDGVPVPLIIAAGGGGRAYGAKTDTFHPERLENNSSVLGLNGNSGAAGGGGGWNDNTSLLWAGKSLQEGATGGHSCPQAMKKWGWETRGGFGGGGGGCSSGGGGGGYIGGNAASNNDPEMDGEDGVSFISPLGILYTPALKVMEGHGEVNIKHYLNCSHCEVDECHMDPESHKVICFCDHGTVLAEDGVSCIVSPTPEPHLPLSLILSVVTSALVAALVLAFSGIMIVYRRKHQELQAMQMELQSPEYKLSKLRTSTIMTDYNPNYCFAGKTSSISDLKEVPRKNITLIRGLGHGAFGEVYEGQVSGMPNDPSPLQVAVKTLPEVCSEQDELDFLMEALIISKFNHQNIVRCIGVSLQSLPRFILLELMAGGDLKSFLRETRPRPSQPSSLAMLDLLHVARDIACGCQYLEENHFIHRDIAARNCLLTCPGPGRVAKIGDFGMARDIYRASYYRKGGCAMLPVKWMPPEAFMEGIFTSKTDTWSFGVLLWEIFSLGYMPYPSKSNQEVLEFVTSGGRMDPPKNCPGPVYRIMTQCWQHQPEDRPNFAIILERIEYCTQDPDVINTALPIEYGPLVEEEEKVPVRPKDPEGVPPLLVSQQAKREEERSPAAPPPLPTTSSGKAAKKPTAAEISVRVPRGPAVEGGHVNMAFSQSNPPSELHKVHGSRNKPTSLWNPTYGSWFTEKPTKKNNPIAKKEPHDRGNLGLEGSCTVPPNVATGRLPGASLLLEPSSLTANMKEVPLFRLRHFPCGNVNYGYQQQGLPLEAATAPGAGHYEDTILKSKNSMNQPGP

Compound	IC50 (ALK enzyme; purified ALK enzyme 10 nM, ATP 25 μM (Km))	IC50 (cMet enzyme)	IC50 ([1]; read-out: ELISA assay for WT EML4-ALK (IC50), cellular phospho-ALK (Tyr1604), NIH-3T3 EML4-ALK wt v1 cells, 1 hour)	Ki [2]	IC50 (ALK enzyme)	IC50 [1]
CC(Oc1cc(-c2cn(C)cn2)cnc1N)c1cc(F)ccc1Cl (stereo not shown) [Example 23, 3-[1-(2-chloro-5-fluorophenyl)-ethoxy]-5-(1-methyMH-imidazol-4-yl)pyridin-2-amine]	271 nM	> 19100 nM	1080 nM	45 nM		
COc1ccc(F)cc1C(C)Oc1cc(-c2c(C)noc2C)cnc1N (stereo not shown) [Example 54, 5-(3,5-dimethylisoxazol-4-yl)-3-[1-(5-fluoro-2-methoxyphenyl)-ethoxy]pyridin-2-amine]		> 18200 nM		1.3 nM	47.2 nM	194 nM
COc1ccc(F)cc1C(C)Oc1cc(-c2ccnn2CCO)cnc1N (stereo not shown) [Example 11, 2-(5-{6-amino-5-[1-(5-fluoro-2-methoxyphenyl)ethoxy]-pyridin-3-yl}-1H-pyrazol-1-yl)ethanol]		> 20000 nM		6.3 nM	52.2 nM	245 nM
COc1ccc(F)cc1C(C)Oc1nc(-c2cn(C)cn2)cnc1N (stereo not shown) [Example 58, 3-[1-(5-fluoro-2-methoxyphenyl)ethoxy]-5-(1-methyl-1H-imidazol-4-yl)pyrazin-2-amine]		> 20000 nM		1.3 nM	86.5 nM	159 nM
COc1ccc(F)cc1C(C)Oc1cc(-c2c(OC)cnn2C)cnc1N (stereo not shown) [Example 16, 3-[1-(5-fluoro-2-methoxyphenyl)ethoxy]-5-(4-methoxy-1-methyl-1H-pyrazol-5-yl)pyridin-2-amine]		11200 nM		1.3 nM	38.1 nM	123 nM
COc1ccc(F)cc1C(C)Oc1cc(-c2c(CO)cnn2C)cnc1N (stereo not shown) [Example 18, (5-{6-amino-5-[1-(5-fluoro-2-methoxyphenyl)ethoxy]pyridin-3-yl}-1-methyl-1H-pyrazol-4-yl)methanol]		> 20000 nM		8.1 nM	92.6 nM	421 nM
COc1ccc(F)cc1[C@@H](C)Oc1cc(-c2ccnn2C)nnc1N [Example 56, 4-[(1R)-1-(5-fluoro-2-methoxyphenyl)ethoxy]-6-(1-methyl-1H-pyrazol-5-yl)pyridazin-3-amine]		> 20000 nM		6.4 nM	47.5 nM	361 nM
COc1ccc(F)cc1C(C)Oc1cc(-c2c(C)nn(C)c2C)cnc1N (stereo not shown) [Example 7, 3-[1-(5-fluoro-2-methoxyphenyl)ethoxy]-5-(1,3,5-trimethyl-1H-pyrazol-4-yl)pyridin-2-amine]		10200 nM		0.536 nM	44.9 nM	33 nM
COc1ccc(F)cc1[C@@H](C)Oc1cc(-c2c(C)ncn2C)cnc1N [Example 25, 5-(1,4-dimethyl-1H-imidazol-5-yl)-3-[(1R)-1-(5-fluoro-2-methoxyphenyl)-ethoxy]pyridin-2-amine]		13200 nM			38.2 nM	
COc1ccc(F)cc1C(C)Oc1cc(-c2ncsc2CO)cnc1N (stereo not shown) [Example 13, (4-{6-amino-5-[1-(5-fluoro-2-methoxyphenyl)ethoxy]-pyridin-3-yl}-1,3-thiazol-5-yl)methanol]		> 20000 nM		5.5 nM	132 nM	591 nM
CC(Oc1cc(-c2ccnn2C)cnc1N)c1cc(F)ccc1-n1ccnn1 (stereo not shown) [Example 32, 3-{1-[5-fluoro-2-(1H-1,2,3-triazol-1-yl)phenyl]-ethoxy}-5-(1-methyl-1H-pyrazol-5-yl)pyridin-2-amine]		> 20000 nM		36 nM	105 nM	883 nM
CC(Oc1cc(-c2ccnn2C)cnc1N)c1cc(F)cc2scnc12 (stereo not shown) [Example 42, 3-[1-(6-fluoro-1,3-benzothiazol-4-yl)ethoxy]-5-(1-methyl-1H-pyrazol-5-yl)pyridin-2-amine]		> 15900 nM		2.05 nM	58.1 nM	263 nM
Cc1n[nH]c(C)c1-c1cnc(N)c(OC(C)c2cc(F)ccc2-n2cccn2)c1 (stereo not shown) [Example 52, 5-(3,5-dimethyl-1H-pyrazol-4-yl)-3-{1-[5-fluoro-2-(1H-pyrazol-1-yl)phenyl]-ethoxy}pyridin-2-amine]		10400 nM		1.1 nM	73.3 nM	14.5 nM
C[C@@H](Oc1cc(-c2cnnn2C)cnc1N)c1cc(F)ccc1-n1nccn1 [Example 21, 3-{(1R)-1-[5-fluoro-2-(2H-1,2,3-triazol-2-yl)phenyl]-ethoxy)-5-(1-methyl-1H-1,2,3-triazol-5-yl)pyridin-2-amine]		14400 nM				
C[C@@H](Oc1cc(-c2scnc2CO)cnc1N)c1cc(F)ccc1-n1nccn1 [Example 28]		13000 nM			63.5 nM	
Cc1n[nH]c(C)c1-c1cnc(N)c(OC(C)c2cc(F)ccc2-n2nccn2)c1 (stereo not shown) [Example 49, 5-(3,5-dimethyl-1H-pyrazol-4-yl)-3-{1-[5-fluoro-2-(2H-1,2,3-triazol-2-yl)phenyl]-ethoxy}pyridin-2-amine]		13100 nM			114 nM	
COc1ccc(F)cc1C(C)Oc1cc(-c2cccnc2O)cnc1N (stereo not shown) [Example 8, 6′-amino-5′-[1-(5-fluoro-2-methoxyphenyl)ethoxy]-3,3′-bipyridin-2-ol]		17400 nM			98.2 nM	
COc1ccc(F)cc1C(C)Oc1cc(-c2c(C)nnn2C)cnc1N (stereo not shown) [Example 10, 5-(1,4-dimethyl-1H-1,2,3-triazol-5-yl)-3-[1-(5-fluoro-2-methoxyphenyl)ethoxy]-pyridin-2-amine]		> 20000 nM			86 nM	361 nM
COc1ccc(F)cc1C(C)Oc1cc(-c2cnc(N)nc2C)cnc1N (stereo not shown) [Example 5, 5-{6-amino-5-[1-(5-fluoro-2-methoxyphenyl)ethoxy]-pyridin-3-yl}-4-methylpyrimidin-2-amine]		13000 nM			48 nM	

Molecules with a lower IC50 (cMet enzyme), results first:

IC50 (ALK enzyme; purified ALK enzyme 10 nM, ATP 25 μM (Km))	IC50 (cMet enzyme)	IC50 ([1]; read-out: ELISA assay for WT EML4-ALK (IC50), cellular phospho-ALK (Tyr1604), NIH-3T3 EML4-ALK wt v1 cells, 1 hour)	Ki [2]	IC50 (ALK enzyme)	IC50 [1]	Compound
	4160 nM		1.57 nM	75.6 nM	106 nM	Cc1n[nH]cc1-c1cnc(N)c(OC(C)c2cc(F)ccc2Cl)c1 (stereo not shown) [Example 45, 3-[1-(2-chloro-5-fluorophenyl)ethoxy]-5-(3-methyl-1H-pyrazol-4-yl)pyridin-2-amine]
	4440 nM		0.401 nM	27 nM	23.3 nM	COc1ccc(F)cc1[C@@H](C)Oc1cc(-c2c(C)nn(CCO)c2C)cnc1N [Example 53, 2-(4-{6-amino-5-[(1R)-1-(5-fluoro-2-methoxyphenyl)-ethoxy]pyridin-3-yl}-3,5-dimethyl-1H-pyrazol-1-yl)ethanol]
	5590 nM		0.922 nM	15.7 nM	58.6 nM	COc1ncc(F)cc1C(C)Oc1cc(-c2c[nH]nc2C)cnc1N (stereo not shown) [Example 41, 3-[1-(5-fluoro-2-methoxypyridin-3-yl)ethoxy]-5-(3-methyl-1H-pyrazol-4-yl)pyridin-2-amine]
	5090 nM		< 0.249 nM	34.9 nM		COc1ccc(F)cc1C(C)Oc1cc(-c2ccnn2C)cnc1N (stereo not shown) [Example 43, 3-[1-(5-fluoro-2-methoxyphenyl)-ethoxy]-5-(1-methyl-1H-pyrazol-5-yl)pyridin-2-amine monohydrochloride]
	8420 nM		2.1 nM	70.6 nM	194 nM	COc1ccc(F)cc1C(C)Oc1cc(-c2cnn(C)c2CO)cnc1N (stereo not shown) [Example 12, (4-{6-amino-5-[1-(5-fluoro-2-methoxyphenyl)ethoxy]-pyridin-3-yl}-1-methyl-1H-pyrazol-5-yl)methanol]
	7480 nM			30 nM	151 nM	C[C@@H](Oc1cc(-c2c(F)cnn2C)cnc1N)c1cc(F)ccc1-n1nccn1 [Example 29]
	8290 nM			74.8 nM		COc1ccc(F)cc1C(C)Oc1cc(-c2scnc2CO)cnc1N (stereo not shown) [Example 14, (5-{6-amino-5-[1-(5-fluoro-2-methoxyphenyl)ethoxy]-pyridin-3-yl}-1,3-thiazol-4-yl)methanol]
	6850 nM					COc1ncccc1-c1cnc(N)c(OC(C)c2cc(F)ccc2-n2nccn2)c1 (stereo not shown) [Example 46, 5-{1-[5-fluoro-2-(2H-1,2,3-triazol-2-yl)phenyl]-ethoxy}-2′-methoxy-3,3′-bipyridin-6-amine]
	5610 nM					Cc1[nH]ncc1-c1cnc(N)c(OC(C)c2cc(F)ccc2F)c1 (stereo not shown) [Example 35, 3-[1-(2,5-difluorophenyl)ethoxy]-5-(5-methyl-1H-pyrazo-4-yl)pyridin-2-amine]
	3680 nM			38 nM	47.5 nM	COc1ccc(F)cc1[C@@H](C)Oc1cc(-c2cncn2C)cnc1N [Example 22, 3-[(1R)-1-(5-fluoro-2-methoxyphenyl)-ethoxy]-5-(1-methyl-1H-imidazol-5-yl)pyridin-2-amine]
	6740 nM		0.62 nM	33.6 nM		COc1ccc(F)cc1C(C)Oc1cc(-c2c(C)n[nH]c2C)cnc1N (stereo not shown) [Example 6, 5-(3,5-dimethyl-1H-pyrazol-4-yl)-3-[1-(5-fluoro-2-methoxyphenyl)ethoxy]-pyridin-2-amine]
